Assays:
[1] = Thio T binding (amyloid fibril formation); format: physicochemical; parameters: key to Thio T Binding: b, binding; n, not binding; details: 1 mg/ml in 5% D-mannitol, 0.01% sodium azide
Description: The kinetics of fibril formation in vitro is generally a slow process over several days or weeks, and can be monitored by the increase of fluorescence intensity of the cross-β-sheet–sensitive dye, Thio T [15]. Thio T fluorescence is thereby insignificant during the initial incubation period of amyloid aggregation due to the nonexistence of Thio T–sensitive β-sheet aggregates. After the initial phase, a time-dependent increase of fluorescence intensity is observed until a maximum intensity is reached, at which time maximal fibril formation has occurred. […] For the Thio T binding studies, all GnRH analogs were incubated at room temperature at a concentration of 1 mg/ml in 5% D-mannitol, conditions identical to the formulation used in the animal experiments. In addition, 0.01% sodium azide was added. The Thio T fluorescence was monitored daily for all analogs over a period of 21 d (Figure 1).
(§1) GnRH analogs were dissolved in a glass tube in 1 ml of 5% D-mannitol and 0.01% sodium azide at a concentration of 1 mg/ml. The GnRH analogs were then incubated at room temperature without stirring. The fibril formation was monitored by EM, CR, and time-resolved by Thio T binding studies. Three independent experiments were performed for each sample.
A 10-μl aliquot of peptide sample was diluted into 500 μl of water with 5% D-mannitol containing 0.01% (w/v) sodium azide. The solution was mixed with 10 μl of 1 mM Thio T prepared in the same solution. Fluorescence was measured immediately after addition of Thio T. The experiment was measured on a spectrofluorimeter (Photon Technology International) with excitation at 450 nm and emission at 482 nm. The fluorescence intensity at 482 nm was plotted against incubation time (day). A rectangular 10-mm quartz microcuvette was used. Three independent experiments were performed for each sample.

[2] = Electron microscopy of negative-stained samples; format: physicochemical; parameters: key to EM^8 / EM^30: fib, fibrils; nfib, no fibrils; details: 1 mg/ml in 5% D-mannitol, room temperature, at least two independent experiments
Description: To formally determine the formation of amyloid fibrils by GnRH analogs and to characterize other possible assemblies present in the sample, EM was done on all of the GnRH analogs. Since the EM analysis is for a qualitative interpretation only, amyloid fibrils and other small aggregates might be observed under the electron microscope even if only a minority of the sample forms fibrils. Samples were studied after 8 and 30 d of incubation. […] The fibrils show a wide variety of morphologies, comprising helical ultrastructures with varying degrees of lateral association. Furthermore, the fibrils are composed of one or more filaments, resulting in overall diameters ranging from approximately 6 to 12 nm. No oligomers are observed for the long-acting compounds at day 8 or at day 30 (Figures 2 and S2).
as §1
A 5-μl aliquot of peptide sample was diluted into 50 μl of water to a peptide concentration of approximately 50 μM, spotted on a glow-discharged, carbon-coated Formvar grid (Electron Microscopy Sciences), incubated for 5 min, washed with distilled water, and then stained with 1% (w/v) aqueous uranyl formate solution. Uranyl formate solutions were filtered through 0.2-μm sterile syringe filters (Corning) before use. EM analysis was performed using a JEOL JEM-100CXII electron microscope at 80 kV with nominal magnifications between 36,000 and 72,000. Images were recorded digitally by using the SIS Megaview III imaging system. At least two independent experiments were carried out for each sample.

[3] = Peptide release from amyloid (dialysis experiment); details: 3.5-kDa MWCO, room temperature, 35 d
Description: Although amyloid fibrils are very stable, they must follow thermodynamic equilibrium conditions between fibril and monomer. […] A total of 200 μl of 30-d-old GnRH analog (in) was dialyzed 4 ml of 5% D-mannitol (out). A 3.5-kDa cutoff, which is twice the size of the peptides studied, was chosen to ensure that the released particles are most likely monomeric. The peptide release and the remaining aggregates were monitored by fluorescence over 35 d at room temperature.
A 200-μl aliquot of aged GnRH in solution conditions given above was transferred into a 0.6-ml Eppendorf tube with a hole in the cap. To study the effect of heparin on peptide release, a mixture of hormone analog and heparin (1:1 v/v) was incubated overnight in parallel with a half-diluted peptide fibril sample in 5% D-mannitol and 0.01% sodium azide. The hole in the cap of the Eppendorf tube was sealed with a 3.5-kDa molecular weight cutoff (MWCO) membrane. Next, the Eppendorf tube was inserted upside down into a 15-ml Falcon tube containing 4 ml of 5% D-mannitol in water and 0.01% sodium azide. Care was taken to make sure that the membrane was exposed to solutions both in and outside and that any bubbles at the membrane interface were removed. The tubes were then incubated at room temperature. To measure the remaining peptide concentration inside the 0.6-ml Eppendorf tube, a 5-μl aliquot was diluted into 500 μl water with 5% D-mannitol, 0.01% sodium azide, and the fluorescence was measured with excitation at 280 nm and emission in the range of 290–500 nm. The excitation slit width was 2 nm, and emission slit width was 11 nm. To determine the peptide concentration outside the membrane in the 15-ml tube, an aliquot of 250 μl of solution was taken from the releasing medium, diluted into 500 μl final volume by 5% D-mannitol, 0.01% sodium azide, and fluorescence was measured. Following spectra recording, the dialysis system was reassembled as described above. […] The normalized intensity maxima from inside and outside the membrane were plotted as a function of time and fit by an exponential function to extract the half-life of the fibrils and the K off, respectively. […] The extracted half-life, t 1/2, is the time taken, during which the fluorescence signal inside the 0.6-ml Eppendorf tube drops by 50%.

Thio T Binding ([1]; room temperature without stirring, monitored daily over 21 d, fluorescence ex 450 nm / em 482 nm, three independent experiments): b | EM^8 ([2]; electron microscopy at day 8 of incubation): fib | EM^30 ([2]; electron microscopy at day 30 of incubation): fib | KD ([3]; dissociation constant of the aggregates = final monomer concentration, 200 μl of 30-d-old analog dialyzed against 4 ml 5% D-mannitol, fluorescence ex 280 nm): 8 µM | t1/2 ([3]; half-life of fibrils: time in which fluorescence inside drops by 50%, dialysis of 30-d-old analog, 5% D-mannitol, exponential fit, 2 d = intrinsic diffusion of monomer): 35 days
Substance: Ac-DNal-DCpa-Agl(Nic)-Ser-Aph(Ac)-DAph(Ac)-Leu-ILys-Pro-DAla-NH2 [L20]
Thio T binding (in words) ([1]; room temperature, 21 d): bind significantly more Thio T during the entire experiment

Reference: paper PMC2225439, “Amyloid as a Depot for the Formulation of Long-Acting Drugs” (PLoS Biology, 2008)
